In patent publication US20240262857A1, “NOVEL UNIVERSAL ANTI-RNA VIRUS AGENTS” (priority 2021, published 2024):
Where two headings read alike, the source gives them in different places.

How the values were obtained:
SARS-CoV-2 = assay: microbe, parasite or virus in culture; assay type: cell-based
[1] = Cellular toxicity assay, Huh7 cells; assay type: cell-based; settings: human, read-out: Cytotoxicity CC50 Huh7
[2] = Cellular toxicity assay, PBM cells; settings: human
[3] = Cellular toxicity assay, CEM cells; settings: human
[4] = Cellular toxicity assay, Vero cells; settings: African green monkey
HCoV-OC43 = assay: microbe, parasite or virus in culture; assay type: cell-based; settings: Betacoronavirus 1, OC43
CEM cells = assay: Cellular toxicity assay, CEM cells; settings: read-out: Cytotoxicity CC50 CEM; CEM cells
Vero cells [5] = assay: Cellular toxicity assay, Vero cells; settings: read-out: Cytotoxicity CC50 Vero; Vero cells
Vero cells [6] = assay: Incubation of NHC in Vero cells, LC-MS/MS of deoxy-NHC derivatives; settings: 4 h at 37° C.
[7] = biological target: T1, ribonucleotide reductase (RNR) (Homo sapiens, UniProt P23921)
T1 sequence (P23921 1-792): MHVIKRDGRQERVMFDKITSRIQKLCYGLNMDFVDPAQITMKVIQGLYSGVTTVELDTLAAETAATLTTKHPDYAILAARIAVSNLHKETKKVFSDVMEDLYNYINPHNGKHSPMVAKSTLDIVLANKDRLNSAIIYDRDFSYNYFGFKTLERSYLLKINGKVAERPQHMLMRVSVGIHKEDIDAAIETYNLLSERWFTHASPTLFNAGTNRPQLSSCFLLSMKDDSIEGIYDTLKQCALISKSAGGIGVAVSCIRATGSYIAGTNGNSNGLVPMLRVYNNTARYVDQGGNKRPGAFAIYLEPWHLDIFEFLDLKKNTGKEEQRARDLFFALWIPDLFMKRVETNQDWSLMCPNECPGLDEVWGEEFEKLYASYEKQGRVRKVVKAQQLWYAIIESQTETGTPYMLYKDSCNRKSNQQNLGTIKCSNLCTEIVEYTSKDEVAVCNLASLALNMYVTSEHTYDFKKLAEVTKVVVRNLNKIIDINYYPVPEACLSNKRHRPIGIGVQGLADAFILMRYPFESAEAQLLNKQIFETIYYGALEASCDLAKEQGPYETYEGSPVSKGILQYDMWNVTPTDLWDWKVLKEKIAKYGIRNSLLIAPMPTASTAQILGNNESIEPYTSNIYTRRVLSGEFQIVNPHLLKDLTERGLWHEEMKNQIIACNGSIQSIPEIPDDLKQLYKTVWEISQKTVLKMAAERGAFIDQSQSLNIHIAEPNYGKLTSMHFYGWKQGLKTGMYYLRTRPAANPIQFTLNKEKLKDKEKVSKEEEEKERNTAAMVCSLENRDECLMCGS
T1 sequence (P31350 1-389 partner): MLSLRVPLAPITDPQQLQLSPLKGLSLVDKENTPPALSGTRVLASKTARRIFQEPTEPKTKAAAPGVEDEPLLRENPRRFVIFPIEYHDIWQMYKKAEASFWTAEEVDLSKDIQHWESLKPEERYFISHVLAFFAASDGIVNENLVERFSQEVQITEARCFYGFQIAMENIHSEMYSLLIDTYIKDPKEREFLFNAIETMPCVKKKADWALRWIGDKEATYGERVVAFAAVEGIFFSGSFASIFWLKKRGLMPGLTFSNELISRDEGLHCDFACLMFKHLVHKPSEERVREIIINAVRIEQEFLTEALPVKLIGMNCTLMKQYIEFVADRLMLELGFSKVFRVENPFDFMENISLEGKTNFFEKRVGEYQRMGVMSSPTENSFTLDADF

[8] = Severe acute respiratory syndrome coronavirus 2, Calu-3, Calu3 cells, read-out: Anti-SARS-CoV-2 Activity (Calu3) EC50
[9] = Severe acute respiratory syndrome coronavirus 2, Calu-3, Calu3 cells, read-out: Anti-SARS-CoV-2 Activity (Calu3) EC90
[10] = Severe acute respiratory syndrome coronavirus 2, Vero cells, read-out: Anti-SARS-CoV-2 Activity (Vero) EC50
[11] = Severe acute respiratory syndrome coronavirus 2, Vero cells, read-out: Anti-SARS-CoV-2 Activity (Vero) EC90

Row | Structure (SMILES) | EC50 (SARS-CoV-2; [8]) [nM] | EC90 (SARS-CoV-2; [9]) [nM] | EC50 (SARS-CoV-2; [10]) [nM] | EC90 (SARS-CoV-2; [11]) [nM] | CC50 [1] [nM] | CC50 [2] [nM] | CC50 [3] [nM] | CC50 [4] [nM] | EC50 (SARS-CoV-2; Severe acute respiratory syndrome coronavirus 2, read-out: Anti-SARS-Cov-2 EC50) [nM] | EC90 (SARS-CoV-2; Severe acute respiratory syndrome coronavirus 2, read-out: Anti-SARS-Cov-2 EC90) [nM] | EC50 (HCoV-OC43; read-out: Anti-Hcov-OC43 EC50) [nM] | EC90 (HCoV-OC43; read-out: Anti-Hcov-OC43 EC90) [nM] | CC50 (CEM cells) [nM] | CC50 (Vero cells [5]) [nM] | deoxy-NHC-TP detected in vero cells (Vero cells [6]; 10 μM NHC, cell pellet) | deoxy-NHC-TP detected in vero cells (Vero cells [6]; 50 μM NHC, cell pellet) | level of deoxy-NHC, -MP and -DP in vero cells (Vero cells [6]; cell pellet) | deoxy-NHC or its derivatives in vero cell medium (Vero cells [6]; supernatant) | ratio diphosphate : 2'-deoxy-diphosphate in the samples after RNR reaction [7] | ratio triphosphate : 2'-deoxy-triphosphate in the samples after RNR reaction [7]
1 | CC1(O)C(O)[C@H](n2ccc(NO)nc2=O)O[C@@H]1CO (stereo partly shown) | > 100000 | > 100000 | 600 | 7400 | ≥ 100000 | > 100000 | > 100000 | > 100000 | – | – | – | – | – | – | – | – | – | – | – | –
2 | [2H]C1(O)C(O)[C@H](n2ccc(NO)nc2=O)O[C@@H]1CO (stereo partly drawn) [D-NHC] | 200 | 900 | 100 | 250 | 27700 | 24100 | – | 41600 | – | – | – | – | – | – | – | – | – | – | – | –
3 | O=c1nc(NO)ccn1[C@@H]1O[C@H](CO)[C@@H](O)[C@H]1O [NHC, N^4-hydroxycytidine] | 600 | 2000 | 200 | 420 | – | – | – | – | 300 | 800 | 800 | 1800 | 2600 | 16500 | not | trace amount | below limit of detection | no deoxy-NHC or its derivatives was detected | – | –
4 | O=c1nc(NO)ccn1[C@@H]1O[C@H](COP(=O)(O)OP(=O)(O)O)[C@@H](O)[C@H]1O [NHC-DP] | – | – | – | – | – | – | – | – | – | – | – | – | – | – | – | – | – | – | around 100:0.1 | ~100:0.009
